Experimental data from patent US20200231562A1, “NOVEL MACROLIDE ANTIBIOTICS” (HELMHOLTZ-ZENTRUM FÜR INFEKTIONSFORSCHUNG GMBH, priority 2014, published 2020).
Values after ≈ are worked out from the molar mass of the structure shown. Read-outs that look alike come from different tables or passages of the source.

What was measured:
[1] = system: primary monocytes from human peripheral blood; test: MTT assay, cytotoxic activity; type: cell-based; settings: incubation 24 or 48 hours
Method: (§1) The cytotoxic activity of gulmirecin A (3) and gulmirecin B (4) against human cells was evaluated in the well-established MTT assay using primary monocytes from human peripheral blood as well as transformed lung epithelial cell A-549 cell and leukemic Mono Mac 6 cells. Furthermore, 3 and 4 were tested against K-562, HUVEC, and HeLa cells.
Human primary monocytes were isolated from leukocyte concentrates, obtained from the Institute of Transfusion Medicine at the University Hospital Jena, Germany. The concentrates were prepared from the blood of healthy adult human donors who had not taken any anti-inflammatory medication for the 10 days prior to blood donation, as described. In brief, freshly withdrawn peripheral blood was pretreated with citrate-phosphate-dextrose solution as anticoagulant and processed with the 2C+ protocol of the Atreus Whole Blood Processing System (Terum BCT). Peripheral blood mononuclear cells (PBMC) were isolated by dextran sedimentation and centrifugation on LSM 1077 lymphocyte separation medium (PAA Laboratories). For isolation of monocytes, the PBMC were washed twice with ice-cold phosphate buffered saline (PBS) and plated (density 2×10^7 cells/ml) in culture flasks (Greiner Bio-One) containing PBMC medium (RPMI 1640 medium supplemented with 100 U/ml penicillin, 100 μg/ml streptomycin and 2 mM L-glutamine) for 1.5 hours at 37° C., 5% CO2. Non-adherent cells were removed; adherent monocytes were scraped, washed with ice-cold PBS and resuspended in ice-cold PBS with a purity of >85%, defined by forward- and side-light scatter properties and detection of the CD14 surface molecule by flow cytometry (BD FACS Calibur). […]
Cells (3×10^5 Mono Mac 6, 1×10^5 A-549 cells, or 2×10^6 monocytes per well) were seeded in a 96-well plate in the respective medium (100 μl/well). […] Absorbance of each well was measured at 570 nm in a Multiskan™ microplate spectrophotometer (Thermo Scientific).

[2] = system: leukemic Mono Mac 6 cells; test: MTT assay, cytotoxic activity; type: cell-based, human; settings: incubation 24 or 48 hours
Method: as §1
The human monocytic cell line Mono Mac 6 was cultured in RPMI 1640 medium supplemented with FCS (10%, v/v), penicillin (100 U/ml), streptomycin (100 μg/ml), insulin (10 μg/ml), oxaloacetic acid (1 mM), sodium pyruvate (1 mM), and 1× non-essential amino acids at 37° C. and 5% CO2. A-549 cells (DSM ACC-107) were cultured in DMEM high glucose (4.5 g/l) medium supplemented with FCS (10% v/v), penicillin (100 U/ml) and streptomycin (100 μg/ml) at 37° C. in a 5% CO2 incubator. K-562 (DSM ACC 10) and HeLa cells (DSM ACC 57) were grown in RPMI 1640, whereas cells of HUVEC (ATCC CRL-1730) were cultured in DMEM medium. The respective media were supplemented with ultraglutamine 1 (10 ml/l), gentamicin sulfate (500 μl/l), and FCS (10% v/v).
Cells (3×10^5 Mono Mac 6, 1×10^5 A-549 cells, or 2×10^6 monocytes per well) were seeded in a 96-well plate in the respective medium (100 μl/well). Monocytes were allowed to adhere for 1.5 hours (37° C., 5% CO2) prior to treatment. […] Then, 20 μl of thiazolyl blue tetrazolium bromide (MTT, 5 mg/ml PBS) were added, and the incubation was continued at 37° C., 5% CO2 until blue staining of the vehicle control. Formazan formation was stopped by adding 100 μl of lysis buffer (SDS, 10%, w/v in 20 mM HCl) and samples were shaken overnight. Absorbance of each well was measured at 570 nm in a Multiskan™ microplate spectrophotometer (Thermo Scientific).

[3] = system: Chromobacterium violaceum DSM 30191; test: MIC by microbroth dilution; type: cell-based; settings: 16 h, 30° C., n.i. = no inhibition up to 67 μg/ml
Method: (§2) Bacterial strains. Bacterial wildtype strains used in susceptibility assays were either part of HZI's strain collection or purchased from the German Collection of Microorgansims and Cell Cultures (Deutsche Sammlung von Mikroorganismen und Zellkulturen, DSMZ).
(§3) Minimum inhibitory concentration (MIC) was determined by microbroth dilution. In brief, overnight cultures of bacteria (EBS medium) were diluted to OD600 0.01. Disciformycin A (1) or B (2) dissolved in DMSO was added directly to the cultures in 96-well plates (Sarstedt, flat bottom) in duplicate and the compound was tested in serial dilution. […] After 16 h incubation at 900 rpm and 30° C. on a microplate shaker (Titramax, Heidolph) absorbance at 600 nm was measured using a microplate reader (POLARstar Omega, BMG Labtech). MIC values were determined by sigmoidal curve fitting.

[4] = system: Escherichia coli DSM 1116; test: MIC by microbroth dilution; type: cell-based; settings: 16 h, 30° C., n.i. = no inhibition up to 67 μg/ml
Method: as §2, §3

[5] = system: Micrococcus luteus DSM 20030; test: MIC by microbroth dilution; type: cell-based; settings: Micrococcus luteus, DSM20030, 16 h, 30° C., n.i. = no inhibition up to 67 μg/ml, read-out: MIC
Method: as §2, §3

[6] = system: Mycobacterium diemhoferi DSM 43524; test: MIC by microbroth dilution; type: cell-based; settings: Mycobacterium, DSM43524, 16 h, 30° C., n.i. = no inhibition up to 67 μg/ml, read-out: MIC
Method: as §2, §3

[7] = system: Mycobacterium sp. DSM 43270; test: MIC by microbroth dilution; type: cell-based; settings: 16 h, 30° C., n.i. = no inhibition up to 67 μg/ml
Method: as §2, §3

[8] = system: Paenibacillus polymyxa DSM 36; test: MIC by microbroth dilution; type: cell-based; settings: Paenibacillus polymyxa, DSM36, 16 h, 30° C., n.i. = no inhibition up to 67 μg/ml, read-out: MIC
Method: as §2, §3

[9] = system: Staphylococcus aureus (MRSA) DSM-11822; test: MIC by microbroth dilution; type: cell-based; settings: microbroth dilution, 16 h, 30° C., n.i. = no inhibition up to 67 μg/ml
Method: as §2, §3

[10] = system: Staphylococcus camosus DSM 20501; test: MIC by microbroth dilution; type: cell-based; settings: 30° C., n.i. = no inhibition up to 67 μg/ml
Method: as §2, §3

Row | SMILES | cell viability / cytotoxicity (MTT) [1] | cell viability / cytotoxicity (MTT) [2] | MIC [3] | MIC [4] | MIC [5] [µg/mL] | MIC [6] [µg/mL] | MIC [7] | MIC [8] [µg/mL] | MIC ([9]; Staphylococcus aureus, read-out: MIC) [µg/mL] | MIC [9] [µg/mL] | MIC ([10]; 16 h) [µg/mL] | MIC ([10]; Staphylococcus, DSM20501, 16 h, read-out: MIC) [µg/mL]
1 | C/C=C(/C)[C@H]1C/C=C(\C)[C@@H](O[C@H]2O[C@H](CO)[C@@H](O)[C@@H]2O)[C@H](OC(=O)CC(C)C)C(=O)C[C@@H](O)[C@H](C)C(=O)O1 [Compound 3, gulmirecin A] | no reduction in cell viability at the concentrations required for antibacterial activity | no reduction in cell viability at the concentrations required for antibacterial activity |  |  |  |  |  |  |  |  |  | 
2 | C/C=C(/C)[C@H]1C/C=C(\C)[C@@H](O[C@H]2O[C@H](CO)[C@@H](O)[C@@H]2O)[C@H](OC(=O)CC(C)C)C(=O)C/C=C(/C)C(=O)O1 [Compound 1, disciformycin A] |  |  | n.i. | n.i. | 67 (≈ 128 µM) | 33.3 (≈ 63.5 µM) | n.i. | 16.6 (≈ 31.6 µM) | 4 (≈ 7.62 µM) | 4.0 (≈ 7.62 µM) | 7.8 (≈ 14.9 µM) | 7.8 (≈ 14.9 µM)
3 | C/C=C(/C)[C@H]1C/C=C(\C)[C@@H](O[C@H]2O[C@H](CO)[C@@H](O)[C@@H]2O)[C@H](O)C(=O)CC[C@H](C)C(=O)O1 [Compound 4, gulmirecin B] | no reduction in cell viability at the concentrations required for antibacterial activity | no reduction in cell viability at the concentrations required for antibacterial activity |  |  |  |  |  |  |  |  |  | 
